Experimental findings from patent US20230055961A1, “PENTAFLUOROBENZENESULFONAMIDE DERIVATIVES AND USES THEREOF” (Dunad Therapeutics Ltd., priority 2019, published 2023) are described below.

A value given as a limit tells only on which side of the number the result lay.

For one test, the system named is MV-4-11. Briefly: In vitro IC50 against human cancer cells (Table 11), MV-4-11. The test is classed as cell-based. The following applies: MV4-11, read-out: Human cancer cell lines (IC50, μM) MV-4-11.
The subject of another test is MOLM-13. Put plainly: In vitro IC50 against human cancer cells (Table 11), MOLM-13. The following applies: read-out: Human cancer cell lines (IC50, μM) MOLM-13. The test is classed as cell-based.
The next test concerns K562. Put plainly: In vitro IC50 against human cancer cells (Table 11), K562. The following applies: read-out: Human cancer cell lines (IC50, μM) K562. The class given is cell-based.
Another test relates to tubulin. Briefly: In vitro % inhibition of tubulin polymerization (Table 12; absorbance at 340 nm, Vmax). The test is classed as biochemical. As for the experimental part: A 96-well half-area clear flat-bottom microplate (Corning© #3697) is pre-heated in a plate reader (Cytation 3, BioTek) at 37° C. for 15 minutes prior to the start of each assay. Kinase buffer (80 mM PIPES pH 6.9, 2 mM MgCl2, 0.5 mM EGTA, 15% glycerol, 1 mM GTP) is prepared from stock solutions and placed on ice. Inhibitors of this application are prepared to 10 μM concentrations in buffer (80 mM PIPES pH 6.9, 2 mM MgCl2, 0.5 mM EGTA, 5% DMSO) from DMSO stock solutions. After the assay plate is pre-warmed, 10 μL of inhibitor or buffer control is added to selected wells. Every assay contained a kinase only negative control for normalization of data, and a known compound positive control. The assay plate is incubated at 37° C. for 3 minutes. During this time, a frozen aliquot of the kinase (10 mg/mL) in buffer (80 mM PIPES pH 6.9, 2 mM MgCl2, 0.5 mM EGTA) is defrosted by placing in a room temperature water bath. Once thawed, 200 μL of the kinase is mixed with 420 μL of the ice-cold kinase buffer (3 mg/mL kinase in 80 mM PIPES, pH 6.9, 2 mM MgCl2, 0.5 mM EGTA, 1 mM GTP, 10.2% glycerol). To a 96-well plate on ice, aliquots of 100 μL kinase is added to each well. From this plate, 90 μL of the kinase is immediately pipetted into all sample wells of the warmed assay plate using a multi-channel pipette. The assay plate is immediately put in the reader at 37° C. and shook for 5 s with orbital shaking at medium speed. The reader records the absorbance at 340 nm every 15 s for 30 min.
The resulting absorbance curves are normalized by subtracting each data point by the absorbance at time 0.

Another test deals with RL cells. Put plainly: IC50 of Ibrutinib analogs against human cancer cells, RL cells (Table 14). The following applies: Homo sapiens, RL, Table 14; RL human non-Hodgkin's lymphoma B cell line; read-out: RL (IC50). The test is classed as cell-based.
The next test has as its target T1, BMX (Homo sapiens, UniProt P51813).
T1 sequence (P51813 1-675): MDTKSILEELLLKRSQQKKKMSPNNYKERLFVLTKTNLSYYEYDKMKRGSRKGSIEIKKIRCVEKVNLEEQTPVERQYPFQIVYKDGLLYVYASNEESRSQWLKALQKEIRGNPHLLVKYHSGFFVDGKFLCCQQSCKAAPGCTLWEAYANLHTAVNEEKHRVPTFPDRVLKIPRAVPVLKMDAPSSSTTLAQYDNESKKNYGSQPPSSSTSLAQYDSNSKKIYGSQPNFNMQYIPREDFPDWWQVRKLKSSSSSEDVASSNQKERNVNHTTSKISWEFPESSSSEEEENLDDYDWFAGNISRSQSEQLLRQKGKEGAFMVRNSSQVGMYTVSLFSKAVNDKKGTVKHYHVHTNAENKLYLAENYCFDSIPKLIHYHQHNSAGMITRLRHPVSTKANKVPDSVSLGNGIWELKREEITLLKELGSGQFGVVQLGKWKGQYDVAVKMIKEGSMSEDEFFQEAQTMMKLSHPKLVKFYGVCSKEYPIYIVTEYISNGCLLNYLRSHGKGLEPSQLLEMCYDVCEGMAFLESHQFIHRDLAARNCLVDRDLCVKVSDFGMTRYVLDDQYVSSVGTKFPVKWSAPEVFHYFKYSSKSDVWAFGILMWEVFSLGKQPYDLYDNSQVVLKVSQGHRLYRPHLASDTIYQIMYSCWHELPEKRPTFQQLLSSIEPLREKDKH
Briefly: In vitro kinase inhibition studies (Table 9), BMX. The test is classed as biochemical.

Another test deals with BTK (Homo sapiens, UniProt Q06187). Put plainly: In vitro BTK inhibition, biochemical IC50 (no preincubation). Conditions: Table 7. As for the experimental part:
IC50 Values (nM) for the Inhibition of BTK Activity
In vitro BTK and JAK3 inhibition studies are shown in Table 7 and Table 8 (no preincubation).

In the next test the target is FGFR4 (Homo sapiens, UniProt P22455). Put plainly: In vitro kinase inhibition studies (Table 9), FGFR4. The test is classed as biochemical.
The next test deals with FGFR1 (Homo sapiens, UniProt P11362). Briefly: In vitro kinase inhibition studies (Table 9), FGFR1. The test is classed as biochemical.
Test [1] has as its target T2, His-tagged BTK kinase domain (Homo sapiens, UniProt Q06187).
T2 construct: pET-28b(+)-BTK (402-655) vector; made in house; host or cells: E. coli BL21 (DE3) RILP
Put plainly: Mass spectral analysis of tryptic digest of His-tagged BTK kinase domain (MSMS of modified peptides). The test is classed as binding. Conditions: 10 μM compound, 45 min; for C481 labelled by test compound (tryptic digest peptide): cysteine 481. Here is the method: A protein kinase that is inhibited by compound and/or pharmaceutically acceptable salt of the present disclosure may be subjected to mass spectral analysis to assess the formation of permanent, irreversible covalent adducts. […] Such methods identify permanent, irreversible covalent protein adducts by observing a mass peak that corresponds to the mass of a control sample plus the mass of an irreversible adduct.
The starter cultures were incubated with shaking at 37° C. until cloudy and used to inoculate 1 L of Super broth containing same concentrations of kanamycin and chloramphenicol, 10 mM MgSO4, 5 mM CaCl2), and 0.1% (w/v) glucose. The cultures were incubated under similar conditions to an OD600 of 0.6-0.8. Before induction with 0.5 mM IPTG, the temperature was reduced to 16° C. The cells were harvested by centrifugation following approximately 18 h and frozen in a −80° C. freezer until use.
Cells were thawed in lysis buffer (50 mM HEPES [pH 7.6], 300 mM NaCl, 10 mM MgCl2, 10% [v/v] glycerol, 0.1 mg/mL lysozyme, 50 μg/mL DNase I, and protease inhibitors). Cells were sonicated (30 s on, 60 s off) for 3 repeating cycles. The cell lysates were cleared by centrifugation at 4° C. […] This eluant was cleaved with Ulp1 protease and loaded onto a S200 Superdex FPLC column (GE healthcare) pre-equilibrated with 20 mM HEPES pH 7.4, 150 mM NaCl, and 10% [v/v] glycerol. Pure fractions of His-tagged BTK kinase domain, as judged by SDS-PAGE, were pooled and concentrated using Amicon 10 kDa cutoff concentrators and after aliquoting stored at −80 C until use.
After the incubation time, the reactions were quenched by acetone precipitation and the pellet was re-dissolved in 8 M Urea. The protein was then reduced (5 mM DTT), alkylated (15 mM iodoacetamide) and digested (1 μg trypsin at 37° C. for 4 hours). The digest was then stopped by addition of trifluoroacetic acid, and peptides were removed from gel band by sonicating with increasing amounts of acetonitrile (0%, 30%, & 60%). Peptides were then purified using C18 ziptips, spotted on the MALDI target plate with a-cyano-4-hydroxycinnamic acid as the desorption matrix (10 mg/ml in 0.1% TFA: Acetonitrile 50:50), and analyzed in reflectron mode.

Setting [2] is: 10 μM His-BTK KD, tryptic digest MSMS.

As usually defined, the IC50 is the point on the concentration scale where inhibition reaches its midpoint.

T2 sequence (Q06187 402-655): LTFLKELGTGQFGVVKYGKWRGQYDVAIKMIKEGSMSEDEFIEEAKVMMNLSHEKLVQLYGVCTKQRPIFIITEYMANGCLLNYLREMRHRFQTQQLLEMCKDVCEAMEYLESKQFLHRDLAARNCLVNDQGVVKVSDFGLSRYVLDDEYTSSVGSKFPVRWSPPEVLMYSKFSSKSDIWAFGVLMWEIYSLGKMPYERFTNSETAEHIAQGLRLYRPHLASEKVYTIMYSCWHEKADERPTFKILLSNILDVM
Chain of FGFR4 (P22455 22-802, species assumed): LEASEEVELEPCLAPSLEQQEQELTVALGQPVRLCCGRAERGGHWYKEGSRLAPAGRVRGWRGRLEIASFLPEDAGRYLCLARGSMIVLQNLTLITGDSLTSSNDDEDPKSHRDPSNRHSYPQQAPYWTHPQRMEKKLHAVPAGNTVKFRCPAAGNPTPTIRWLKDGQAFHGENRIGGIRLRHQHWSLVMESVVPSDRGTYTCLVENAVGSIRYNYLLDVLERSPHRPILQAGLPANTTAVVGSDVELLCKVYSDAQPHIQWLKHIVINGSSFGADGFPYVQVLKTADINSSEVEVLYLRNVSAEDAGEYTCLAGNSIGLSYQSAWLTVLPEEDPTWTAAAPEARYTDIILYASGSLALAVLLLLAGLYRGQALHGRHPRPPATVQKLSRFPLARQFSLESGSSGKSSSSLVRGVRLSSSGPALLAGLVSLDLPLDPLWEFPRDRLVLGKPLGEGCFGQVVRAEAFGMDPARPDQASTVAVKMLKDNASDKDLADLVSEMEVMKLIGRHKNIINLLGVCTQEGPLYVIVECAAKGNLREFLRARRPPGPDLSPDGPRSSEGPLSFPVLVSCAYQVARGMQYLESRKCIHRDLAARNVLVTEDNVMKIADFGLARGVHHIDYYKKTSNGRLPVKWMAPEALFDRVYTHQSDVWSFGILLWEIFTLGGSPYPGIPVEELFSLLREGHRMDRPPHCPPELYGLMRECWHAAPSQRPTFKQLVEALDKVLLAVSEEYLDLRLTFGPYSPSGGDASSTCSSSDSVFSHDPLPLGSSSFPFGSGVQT
Chain of FGFR1 (P11362 22-822, species assumed): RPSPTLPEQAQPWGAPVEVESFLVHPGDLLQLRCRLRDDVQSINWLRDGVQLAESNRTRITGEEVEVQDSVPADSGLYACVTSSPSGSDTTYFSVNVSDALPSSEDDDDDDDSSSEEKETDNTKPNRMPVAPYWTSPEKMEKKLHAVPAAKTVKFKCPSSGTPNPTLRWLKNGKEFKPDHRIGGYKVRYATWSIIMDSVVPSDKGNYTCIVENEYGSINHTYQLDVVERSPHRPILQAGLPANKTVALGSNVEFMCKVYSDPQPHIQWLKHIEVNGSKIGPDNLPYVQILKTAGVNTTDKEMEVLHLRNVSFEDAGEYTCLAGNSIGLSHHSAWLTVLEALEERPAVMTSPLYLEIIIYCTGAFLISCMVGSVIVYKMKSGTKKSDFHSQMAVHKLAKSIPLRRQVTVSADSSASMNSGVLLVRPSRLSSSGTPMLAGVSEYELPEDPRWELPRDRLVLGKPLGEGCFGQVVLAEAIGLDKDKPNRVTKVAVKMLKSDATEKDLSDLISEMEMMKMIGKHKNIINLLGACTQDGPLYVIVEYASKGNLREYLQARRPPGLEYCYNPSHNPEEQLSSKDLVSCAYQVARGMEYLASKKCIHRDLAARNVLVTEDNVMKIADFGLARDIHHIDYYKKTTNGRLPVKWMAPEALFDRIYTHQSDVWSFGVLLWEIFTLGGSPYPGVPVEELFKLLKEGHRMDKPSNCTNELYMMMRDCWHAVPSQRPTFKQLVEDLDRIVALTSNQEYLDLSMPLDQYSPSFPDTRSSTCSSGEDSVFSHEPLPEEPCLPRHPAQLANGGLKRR
Chain of BTK (Q06187 whole entry, species assumed): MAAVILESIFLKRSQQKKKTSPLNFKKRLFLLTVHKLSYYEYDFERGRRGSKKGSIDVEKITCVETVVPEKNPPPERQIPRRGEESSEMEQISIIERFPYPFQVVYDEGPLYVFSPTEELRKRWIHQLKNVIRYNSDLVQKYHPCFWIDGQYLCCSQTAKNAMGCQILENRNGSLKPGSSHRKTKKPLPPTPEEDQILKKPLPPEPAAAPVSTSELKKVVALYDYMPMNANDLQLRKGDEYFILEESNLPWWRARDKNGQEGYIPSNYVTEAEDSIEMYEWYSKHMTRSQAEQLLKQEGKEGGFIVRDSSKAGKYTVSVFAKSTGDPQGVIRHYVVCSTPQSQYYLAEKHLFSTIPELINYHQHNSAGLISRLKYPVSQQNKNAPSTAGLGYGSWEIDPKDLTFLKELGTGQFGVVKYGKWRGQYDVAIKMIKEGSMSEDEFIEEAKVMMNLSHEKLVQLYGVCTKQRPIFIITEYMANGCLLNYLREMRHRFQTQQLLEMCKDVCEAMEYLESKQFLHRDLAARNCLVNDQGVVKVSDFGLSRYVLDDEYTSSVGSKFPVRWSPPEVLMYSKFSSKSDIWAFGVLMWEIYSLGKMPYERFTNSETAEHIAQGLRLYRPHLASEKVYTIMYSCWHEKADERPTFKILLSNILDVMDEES
Experimental for RL cells: 1×10^4 cells (NHF cells)/well are plated in 96-well assay plates in culture medium. […] After 24 hrs, test compounds and vehicle controls are added to appropriate wells so the final volume is 100p in each well. The cells are cultured for the desired test exposure period (72 hrs) at 37° C. and 5% CO2. The assay plates are removed from 37° C. incubator and 20 μl/well of CellTiter-Blue® Reagent is added. The plates are incubated using standard cell culture conditions for 1-4 hours and the plates are shaken for 10 seconds and record fluorescence at 560/590 nm. […] Therapeutic index=(IC50 human fibroblasts/IC50 […] )

For `O=S(=O)(Nc1ccc(OC(F)(F)F)c(F)c1)c1c(F)c(F)c(F)c(F)c1F` [Compound 4-1, 2,3,4,5,6-pentafluoro-N-(3-fluoro-4-(trifluoromethoxy)phenyl)benzenesulfonamide], the IC50 in the test with MV-4-11, in the test on MOLM-13 and in the test with K562 was 10 to 100 µM throughout. In addition, the “% inhibition of tubulin polymerization” value in the test with tubulin is “B (B: 10-20%)”.

`O=S(=O)(Nc1ccc(O)c(F)c1)c1c(F)c(F)c(F)c(F)c1F` [Compound 4-3, 2,3,4,5,6-pentafluoro-N-(3-fluoro-4-hydroxyphenyl)benzenesulfonamide]: in the test on MV-4-11, the IC50 is 0.1 to 10 µM. The “% inhibition of tubulin polymerization” value with tubulin was “A (A: < 10%)”.

For `O=S(=O)(Nc1ccc(Oc2ccccc2)cc1)c1c(F)c(F)c(F)c(F)c1F` [Compound 4-2, 2,3,4,5,6-pentafluoro-N-(4-phenoxyphenyl)benzenesulfonamide], the IC50 with MV-4-11 and with MOLM-13 was 10 to 100 µM each time.

`Nc1ncnc2c1c(-c1ccc(Oc3ccccc3)cc1)nn2S(=O)(=O)c1c(F)c(F)c(F)c(F)c1F` [Compound 5-19, 1-((perfluorophenyl)sulfonyl)-3-(4-phenoxyphenyl)-1H-pyrazolo[3,4-d]pyrimidin-4-amine]: the 50% inhibitory concentration (IC50) in the test on RL cells is 1640 nM; on BMX, 10 to 300 nM.

For `COc1ccc(NS(=O)(=O)c2c(F)c(F)c(F)c(F)c2F)cc1F` [Batabulin], the IC50 in the test with MV-4-11, in the test on MOLM-13 and with K562 was at most 0.1 µM throughout. Moreover, the “% inhibition of tubulin polymerization” value in the test with tubulin was “C (C > 20%)”.

For the molecule `COCCOc1ccc(Nc2ncc(F)c(Nc3cccc(N(C)S(=O)(=O)c4c(F)c(F)c(F)c(F)c4F)c3)n2)cc1` [Compound 5-17, 2,3,4,5,6-pentafluoro-N-(3-((5-fluoro-2-((4-(2-methoxyethoxy)phenyl)amino)pyrimidin-4-yl)amino)phenyl)-N-methylbenzenesulfonamide], the IC50 at BMX lay within 0.1 to 10 nM.

Turning to `O=S(=O)(Nc1ccc(OC(F)F)c(F)c1)c1c(F)c(F)c(F)c(F)c1F` [Compound 4-4, N-(4-(difluoromethoxy)-3-fluorophenyl)-2,3,4,5,6-pentafluorobenzenesulfonamide], the IC50 in the test with MV-4-11 and with MOLM-13 was 0.1 to 10 µM in each case. Moreover, the “% inhibition of tubulin polymerization” value with tubulin is “B (B: 10-20%)”.

`Nc1ncnc2c1c(-c1ccc(Oc3ccccc3)cc1)nn2[C@@H]1CCN(S(=O)(=O)c2c(F)c(F)c(F)c(F)c2F)C1` [Compound 5-5, (R)-1-(1-((perfluorophenyl)sulfonyl)pyrrolidin-3-yl)-3-(4-phenoxyphenyl)-1H-pyrazolo[3,4-d]pyrimidin-4-amine] yielded an IC50 against BTK of 0.1 to 10 nM.

As for `O=S(=O)(Nc1ccc(OCF)c(F)c1)c1c(F)c(F)c(F)c(F)c1F` [Compound 4-6, 2,3,4,5,6-pentafluoro-N-(3-fluoro-4-(fluoromethoxy)phenyl)benzenesulfonamide], the IC50 in the test on MV-4-11, with MOLM-13 and in the test with K562 was 0.1 to 10 µM in each case. For the same molecule, the “% inhibition of tubulin polymerization” value in the test with tubulin is given as “B (B: 10-20%)”.

For the molecule `Nc1ncnc2c1c(-c1ccc(Oc3ccccc3)cc1)nn2[C@H]1CCCN(S(=O)(=O)c2c(F)c(F)c(F)c(F)c2F)C1` [Compound 5-2, (S)-1-(1-((perfluorophenyl)sulfonyl)piperidin-3-yl)-3-(4-phenoxyphenyl)-1H-pyrazolo[3,4-d]pyrimidin-4-amine], the IC50 on BMX was in the range of 0.1 to 10 nM.

`COCCOc1ccc(Nc2ncc(F)c(Nc3ccc(NS(=O)(=O)c4c(F)c(F)c(F)c(F)c4F)cc3)n2)cc1` [Compound 5-14, 2,3,4,5,6-pentafluoro-N-(4-((5-fluoro-2-((4-(2-methoxyethoxy)phenyl)amino)pyrimidin-4-yl)amino)phenyl)benzenesulfonamide]: the IC50 at FGFR4 and on FGFR1 was 10 to 300 nM each time.

`N#Cc1ccc(NS(=O)(=O)c2c(F)c(F)c(F)c(F)c2F)cc1F` [Compound 4-5, N-(4-cyano-3-fluorophenyl)-2,3,4,5,6-pentafluorobenzenesulfonamide]: in the test with MV-4-11, the IC50 was in the range of 10 to 100 µM.

With `COc1ccc(N(C)S(=O)(=O)c2c(F)c(F)c(F)c(F)c2F)cc1F` [Compound 4-12, 2,3,4,5,6-pentafluoro-N-(3-fluoro-4-methoxyphenyl)-N-methylbenzenesulfonamide], in the test on K562, the IC50 was 0.1 to 10 µM.

For the molecule `Nc1ncnc2c1c(-c1ccc(Oc3ccccc3)cc1)nn2CCNS(=O)(=O)c1c(F)c(F)c(F)c(F)c1F` [Compound 5-3, N-[2-[4-amino-3-(4-phenoxyphenyl)pyrazolo[3,4-d]pyrimidin-1-yl]ethyl]-2,3,4,5,6-pentafluoro-benzenesulfonamide], the “C481 labelled by test compound (tryptic digest peptide)” value in test [1] (10 μM BTK KD) was “✓”. Further, in [1] (cysteine 527, 10 μM BTK KD), the “C527 labelled by test compound (tryptic digest peptide)” value is listed as “✓”. For the same molecule, on BMX, the IC50 lay in the range of 0.1 to 10 nM.

With `COCCOc1ccc(Nc2ncc(F)c(NCCNS(=O)(=O)c3c(F)c(F)c(F)c(F)c3F)n2)cc1` [Compound 5-13, 2,3,4,5,6-pentafluoro-N-(2-((5-fluoro-2-((4-(2-methoxyethoxy)phenyl)amino)pyrimidin-4-yl)amino)ethyl)benzenesulfonamide], the IC50 against FGFR4 and against FGFR1 was above 2000 nM throughout. For the same molecule, in [1] (setting [2]), the “amino acid of BTK modified by one equivalent of compound” value is “Cys-481”. Also, the “observed mass of modified tryptic peptide” value in [1] (setting [2]) is recorded as 3059.4 Da. Besides, the “C481 labelled by test compound (tryptic digest peptide)” value in test [1] (10 μM BTK KD) is on record as “✓”.
